For 4 compounds, inhibition results are on record in US4764525A, “N-1H-tetrazol-5-ylbenzamides having use as antiallergy and antiinflammatory agents” (Warner-Lambert Company, priority 1987, dated 1988).

This test concerns human basophils. Description: HHB assay: inhibition of histamine release from human basophils. The class given is cell-based. The note with it: Anti-IgE stimulus, tested at 33 μM. An excerpt: The HHB assay quantitates active histamine release and its inhibition by drugs, from basophils of human blood. Thus, the assay provides evaluation of the compounds of formula I for treating the conditions or diseases as is the present invention. As described herein the assay includes modifications of the method described by R. P. Siroganian in "An Automated Continuous-Flow System for the Extraction and Fluorometric Analysis of Histamine," Anal. Biochem., 57, 383-394 (1974).
Seventy ml of blood are drawn from allergic donors (chosen on the basis of adequate histamine induced by a challenge), using standard venipuncture methods, into 10 ml Vacutainers with 0.08 ml/tube 15% EDTA in water as anticoagulant. The blood samples are placed briefly on a rotary mixer. All glassware contacting the blood is siliconized. The blood is aliquoted into three plastic 50 ml centrifuge tubes and the volume is noted. Hespan (hydroxy ethyl starch), 0.5 ml per 1.0 ml of blood, is added. The tubes are inverted several times to mix and are left undisturbed at room temperature until a sharp separation is observed between the settled red cells and the leukocyte and platelet-rich plasma. This usually occurs within 35-45 minutes.
The plasma fraction is pipetted off and placed into two clean plastic 50 ml centrifuge tubes. The tubes are centrifuged for 12 minutes at 4° C. in a a 100 ml volumetric flask and 0.5 ml DMSO is added. […] If the compound is in solution, distilled water is used to bring it up to 100 ml total volume. If the drug is not in solution, 0.2 ml 1N NaOH (or HCl) is added, and then distilled water is added to yield 100 ml total solution. Five ml of the stock solution is diluted (1:2) with 5 ml of two times concentrated HACM buffer to yield the stock working concentration of 150 μM. When added to the cells and stimulus, a final test concentration of 100 μM drug results (400 μl drug, 100 μcells and 100 μchallenge agent or vehicle). Further dilutions are made with HACM buffer for 33, 10, 3.3, 1.0 μM, etc.
Short ragweed and house dust extracts (Greer Laboratories, Inc.) are supplied as aqueous extracts in stock concentrations of 40,000 and 10,000 protein nitrogen units per milliliter (PNU/ml), respectively. Aqueous solutions of anti-IgE antisera (rabbit-raised antibody) are purchased from Dako via Accurate Chemicals. The tripeptide f-met-leu-phe (fmlp) from Vega Biochemicals is used. The aqueous solutions of ragweed, house dust, and anti-IgE are diluted 1:2 with two times concentrated HACM and then further diluted with HACM to yield final stock concentrations of 6000 PNU/ml for ragweed and house dust, and a 1:50 dilution for the anti-IgE antisera. […]
For the compound `COc1ccc(C(=O)Nc2nnn[nH]2)c(OC(C)C)c1I` [Example 4, 3-Iodo-4-methoxy-2-(1-methylethoxy)-N-1H-tetrazol-5-ylbenzamide], the inhibition (commonly the percentage by which the read-out fell short of the control) at 33 µM was 73%. Under `COc1cc(OC(C)C)c(C(=O)Nc2nnn[nH]2)cc1Br` [Example 3, 5-Bromo-4-methoxy-2-(1-methylethoxy)-N-1H-tetrazol-5-ylbenzamide] stands 28%.

Compound `COc1ccc(C(=O)Nc2nnn[nH]2)c(OC(C)C)c1` [Example 1, 4-Methoxy-2-(1-methylethoxy)-N-1H-tetrazol-5-ylbenzamide] came in with an inhibition at 33 µM of 41%. The value for `COc1ccc(C(=O)Nc2nnn[nH]2)c(OC(C)C)c1Br` [Example 2, 3-Bromo-4-methoxy-2-(1-methylethoxy)-N-1H-tetrazol-5-ylbenzamide] was 60%.
